Source: patent US7794835B2, “Fixing solution, capsule structure, fixing method, fixing device and image forming apparatus” (Ricoh Company, Ltd., priority 2004, dated 2010)
Read-outs that look alike come from different tables or passages of the source.

Columns and labels:
[1] = acute oral toxicity, cited from earlier work
[2] = acute oral toxicity test LD50 (50 percent lethal dose); format: in vivo, rats or guinea pigs; conditions: worked out from LD50 in oral administration
Text: A fixing solution according to the present invention includes aliphatic ester, held in a soluble state with respect to a solvent and having solubility or a swelling property with respect to a resin included in a toner. Thereby, a fixing solution, from which generation of odor is reduced, and by which a not-yet-fixed toner can be rapidly fixed, can be obtained. The aliphatic ester is applied as a softener softening a toner by dissolving or swelling the resin included in the toner. ‘Held in a soluble state’ means as being held in a size on the order of a molecule size on the order of […]. The aliphatic ester preferably has acute oral toxicity test LD50 larger than 3 g/kg in a viewpoint of a safety of humans.
For the first problem, LD50 is applied as a safety index, and a fixing solution was produced in such a manner that each of a solvent and a solute has LD50 not less than 3.0 g/kg. LD50 is a toxicity index of American Industrial Hygiene Association, and means a 50 percent lethal dose. This corresponds to an amount such that, 50% of the number of individuals are dead when a certain amount of test solute or a sample to test is given to rats or guinea pigs. […] Since this means that a 50% lethal dose for a weight of individuals of 1 kg is not less than 15 g, a presumable lethal dose of silicone oil for a human of 65 kg is not less than […] accordingly. […]

| Compound | LD50 [1] | presumable lethal dose for a human of 65 kg [2] | LD50 ([1]; listed as dimethyl silicone oil) |
| --- | --- | --- | --- |
| CCOCCOC(=O)CCC(=O)OCCOCC [diethoxy ethyl succinate] | 5000 mg/kg |  |  |
| CCO [ethanol] | 20000 mg/kg |  |  |
| CCCCCCCCCCCC(=O)OCCCCCC [hexyl laureate] | 8000 mg/kg |  |  |
| CCCCCCCCCCCCCCCC(=O)OCC(C)C [isobutyl palmitate, reference compound] | 8000 mg/kg |  |  |
| CCCCCCCCCCCCCCCC(=O)OC(C)C [isopropyl palmitate, reference compound] | 8000 mg/kg |  |  |
| CCCCCCCCCCCCCC(=O)OC(C)C [isopropylmyristate] | 8000 mg/kg |  |  |
| CCCCCCCC(=O)OC [methylcaprylate, reference compound] | 3000 mg/kg |  |  |
| CCCCCCCCCCCC [n-dodecane] | 20000 mg/kg |  |  |
| CCCCCC [n-hexane] | 28700 mg/kg |  |  |
| [Cl-].[Na+] [salt, reference compound] | 3000 mg/kg |  |  |
| dimethylsiloxane |  | not less than 945 g | not less than 15 g/kg |
